From patent US20130130903A1, “Suppression of Foliar and Soilborne Pathogens” (priority 2003, published 2013)
Read-outs that look alike come from different tables or passages of the source.

Experiments:
[1] = tested on: Rhizoctonia solani isolate AG-8; experiment: Field yield of Rhizoctonia inoculated spring wheat after herbicide treatment; type: in vivo; conditions: for Yield: glyphosate on glyphosate res. wheat, Buctril/Harmony on sensitive wheat
Text: This example describes the response of glyphosate resistant and glyphosate sensitive spring wheat to inoculation with soil pathogens as judged by wheat yield. Inoculation simulates the green-bridge effect of dying weeds and volunteer in a standing wheat crop. The soil pathogens assessed were: Rhizoctonia solani isolate AG-8 and Gaeumannomyces graminis var. tritici. These pathogenic strains are prevalent in the Pacific Northwest and were isolated from the region. They have been maintained by the Department of Plant Pathology and USDA researchers at Washington State University.
Near isogenic lines (glyphosate resistant and glyphosate sensitive) of Westbred 926 and Bobwhite were seeded using a no-till drill at three different sites (Lind, Davenport and Pullman, Wash.).
To introduce the root pathogens into the wheat seed for distribution into the field, oat seeds, autoclaved and sterilized, were inoculated for each soilborne pathogen using isolated pathogen cultures. Oat seeds that were non-inoculated, but sterilized and autoclaved, served as a control. Following two weeks of pathogen growth, the inoculated oat seeds were dried down for 2 days and screened for potential contamination. To establish a green-bridge, a mixture of 15% barley and 20% oat inoculum seeds (by weight) were planted using a small plot no-till drill. One week after planting the introduced green-bridge, the wheat isolines were planted in rows adjacent to the barley green-bridge rows in a randomized, split-plot design, replicated in five randomized blocks. Inoculum treatment served as the main plot, and response to herbicides as the subplot factor.
This example describes the effect of herbicide treatment on spring wheat, averaged over all disease treatments, planted as described in Example 1. The appropriate herbicide was applied to each trial once the plants reached the 4-5 leaf stage with a custom built hand-pulled sprayer outfitted with a boom with a length of 16 feet with spray shields on the side to minimize drift. In this manner, an entire plot was treated at once with the appropriate herbicide rate. Entries that were resistant to glyphosate were treated with ROUNDUP® brand herbicide (0.63 kg/ha), available from Monsanto, St. Louis, Mo. Herbicide sensitive and resistant entries were treated with a common broadleaf herbicide treatment (Buctril/Harmony) or a no-spray control. Introduced green-bridge barley and any other weeds were manually removed 7-10 days after spray treatment to simulate the time required for ROUNDUP to take effect and maintained weed-free conditions to provide an accurate comparison to commercial weed management strategies needed to assess potential herbicide/disease interactions. […]

[2] = tested on: stripe rust; experiment: Glyphosate amount and timing on glyphosate resistant Macon wheat: stripe rust and yield; type: in vivo, Puccinia striiformis
Text: This example describes the effect of glyphosate treatment of glyphosate resistant wheat in varying amounts and at different times. Eight different treatment regimens were applied to the hard white spring wheat variety Macon, which is susceptible to stripe rust. Macon plots were planted at the Palouse Conservation Farm near Pullman, Washington and subjected to one of the following eight treatment regimens:
Treatment 1: no herbicide treatment and manual weed control;
Treatment 2: a 16 oz./A (0.50 kg/ha of active ingredient) application of glyphosate, one-half the recommended rate of 32 oz./A (1.0 kg/ha of active ingredient), was made ‘on-label’ to glyphosate resistant wheat at the 4-5 leaf stage.
Treatment 3: a first application of glyphosate at one-half (0.50 kg/ha of active ingredient) the recommended density of 1.0 kg/ha was made to glyphosate resistant wheat at the 4-5 leaf stage according to the manufacturer's instructions. A second application of 16 oz./A (0.50 kg/ha of active ingredient) glyphosate was made once moderate stripe rust symptoms appeared (42 days following the first glyphosate application).
Treatment 4: a 16 oz./A (0.50 kg/ha of active ingredient) application of glyphosate, one-half the recommended rate, was made to glyphosate resistant wheat once moderate stripe rust symptoms appeared.
Treatment 5: a 32 oz./A (1.0 kg/ha of active ingredient) application of glyphosate, the recommended full rate, was made ‘on-label’ to glyphosate resistant wheat at the 4-5 leaf stage.
Treatment 6: a first application of 32 oz./A. (1.0 kg/ha of active ingredient) glyphosate, the recommended full rate, was made ‘on-label’ to glyphosate resistant wheat at the 4-5 leaf stage and a second application of 32 oz./A. (1.0 kg/ha) glyphosate was made once moderate stripe rust symptoms appeared.
Treatment 7: a 32 oz./A. (1.0 kg/ha of active ingredient) application of glyphosate was made to glyphosate resistant wheat once moderate stripe rust symptoms appeared. Treatment 8: a 48 oz./A. ([…] of active ingredient) application of glyphosate, 1.5 times the recommended rate, was made to glyphosate resistant plants at the 4-5 leaf stage.
With reference to Table 7, stripe rust severity is characterized with two numerical indications. The first is a number characterizing the stripe rust severity on a scale of 0-9, with 0 corresponding to no infection and 9 being a high level of spore activity and infection. The second number is a percentage of the plants in the plot infected with the rating described by the first number.

[3] = tested on: R. solani; conditions: cited from earlier work
[4] = 16 oz (52 days) and 16 oz (94 days)
[5] = 32 oz (52 days) and 32 oz (94 days)
[6] = off-label applications made 94 days after planting

Structure (SMILES): O=C(O)CNCP(=O)(O)O [glyphosate, N-phosphonomethylglycine]
- Yield ([1]; Davenport): 29.0 bu/acre
- Yield ([1]; Lind): 14.0 bu/acre
- Yield ([1]; Pullman): 53.9 bu/acre
- yield relative to untreated and Buctril/Harmony treated glyphosate sensitive wheat ([1]; glyphosate resistant wheat): enhanced yield at each location
- Stripe Rust (96 days after planting), percentage of the plants in the plot infected with the rating ([2]; 16 oz (52 days)): 10%
- Stripe Rust (102 days after planting), percentage of the plants in the plot infected with the rating ([2]; 16 oz (52 days)): 30%
- Stripe Rust (102 days after planting), severity on a scale of 0-9 ([2]; 16 oz (52 days)): 7-8
- Stripe Rust (106 days after planting), percentage of the plants in the plot infected with the rating ([2]; 16 oz (52 days)): 30%
- Stripe Rust (106 days after planting), severity on a scale of 0-9 ([2]; 16 oz (52 days)): 8
- Yield ([2]; 16 oz (52 days)): 60.2 bu/A
- Stripe Rust (96 days after planting), percentage of the plants in the plot infected with the rating [2, 4]: 10%
- Stripe Rust (96 days after planting), severity on a scale of 0-9 [2, 4]: 4-5
- Stripe Rust (102 days after planting), percentage of the plants in the plot infected with the rating [2, 4]: 10%
- Stripe Rust (102 days after planting), severity on a scale of 0-9 [2, 4]: 0-1
- Stripe Rust (106 days after planting), percentage of the plants in the plot infected with the rating [2, 4]: 10%
- Stripe Rust (106 days after planting), severity on a scale of 0-9 [2, 4]: 2
- Yield [2, 4]: 68.7 bu/A
- Stripe Rust (96 days after planting), severity on a scale of 0-9 ([2]; 16 oz (52 days), 0 = no infection, 9 = high level of spore activity and infection): 7-8
- Stripe Rust (96 days after planting), percentage of the plants in the plot infected with the rating ([2]; 16 oz (94 days)): 20%
- Stripe Rust (102 days after planting), percentage of the plants in the plot infected with the rating ([2]; 16 oz (94 days)): 20%
- Stripe Rust (102 days after planting), severity on a scale of 0-9 ([2]; 16 oz (94 days)): 2-3
- Stripe Rust (106 days after planting), percentage of the plants in the plot infected with the rating ([2]; 16 oz (94 days)): 15%
- Stripe Rust (106 days after planting), severity on a scale of 0-9 ([2]; 16 oz (94 days)): 2-3
- Yield ([2]; 16 oz (94 days)): 52.7 bu/A
- Stripe Rust (96 days after planting), severity on a scale of 0-9 ([2]; 16 oz (94 days), once moderate stripe rust symptoms appeared): 7-8
- Stripe Rust (96 days after planting), percentage of the plants in the plot infected with the rating ([2]; 32 oz (52 days)): 20%
- Stripe Rust (96 days after planting), severity on a scale of 0-9 ([2]; 32 oz (52 days)): 7-8
- Stripe Rust (102 days after planting), percentage of the plants in the plot infected with the rating ([2]; 32 oz (52 days)): 40%
- Stripe Rust (102 days after planting), severity on a scale of 0-9 ([2]; 32 oz (52 days)): 7-8
- Stripe Rust (106 days after planting), percentage of the plants in the plot infected with the rating ([2]; 32 oz (52 days)): 60%
- Stripe Rust (106 days after planting), severity on a scale of 0-9 ([2]; 32 oz (52 days)): 8
- Yield ([2]; 32 oz (52 days)): 80.3 bu/A
- Stripe Rust (96 days after planting), percentage of the plants in the plot infected with the rating [2, 5]: 5%
- Stripe Rust (96 days after planting), severity on a scale of 0-9 [2, 5]: 9
- Stripe Rust (102 days after planting), percentage of the plants in the plot infected with the rating [2, 5]: 5%
- Stripe Rust (102 days after planting), severity on a scale of 0-9 [2, 5]: 1-2
- Stripe Rust (106 days after planting), percentage of the plants in the plot infected with the rating [2, 5]: 10%
- Stripe Rust (106 days after planting), severity on a scale of 0-9 [2, 5]: 3
- Yield [2, 5]: 74.5 bu/A
- Stripe Rust (96 days after planting), percentage of the plants in the plot infected with the rating ([2]; 32 oz (94 days)): 25%
- Stripe Rust (102 days after planting), percentage of the plants in the plot infected with the rating ([2]; 32 oz (94 days)): 20%
- Stripe Rust (102 days after planting), severity on a scale of 0-9 ([2]; 32 oz (94 days)): 0-1
- Stripe Rust (106 days after planting), percentage of the plants in the plot infected with the rating ([2]; 32 oz (94 days)): 5%
- Stripe Rust (106 days after planting), severity on a scale of 0-9 ([2]; 32 oz (94 days)): 2
- Yield ([2]; 32 oz (94 days)): 64.5 bu/A
- Stripe Rust (96 days after planting), severity on a scale of 0-9 ([2]; 32 oz (94 days), once moderate stripe rust symptoms appeared): 7-8
- Stripe Rust (96 days after planting), percentage of the plants in the plot infected with the rating ([2]; 48 oz (52 days)): 2%
- Stripe Rust (96 days after planting), severity on a scale of 0-9 ([2]; 48 oz (52 days)): 7-8
- Stripe Rust (102 days after planting), percentage of the plants in the plot infected with the rating ([2]; 48 oz (52 days)): 10%
- Stripe Rust (102 days after planting), severity on a scale of 0-9 ([2]; 48 oz (52 days)): 4-5
- Stripe Rust (106 days after planting), percentage of the plants in the plot infected with the rating ([2]; 48 oz (52 days)): 20%
- Stripe Rust (106 days after planting), severity on a scale of 0-9 ([2]; 48 oz (52 days)): 8
- Yield ([2]; 48 oz (52 days)): 67.8 bu/A
- control of stripe rust compared to the 16 oz./A and 32 oz./A application ([2]; 48 oz./A rate applied at the 4-5 leaf stage): did the best job of controlling stripe rust
- effect on plants moderately infected with stripe rust [2, 6]: a curative effect was observed
- formation of necrotic stripes on the leaves, time following glyphosate application [2, 6]: second day
- control of stripe rust in the trial ([2]; treatments 3 and 6, split-treatments (52 and 94 days after planting)): best control of stripe rust
- grain yields of glyphosate-sensitive barley under R. solani ([3]; glyphosate applied in the fall or three weeks prior to planting): no significant yield depression
- grain yields of glyphosate-sensitive barley under R. solani ([3]; glyphosate applied three days before planting): significantly reduced grain yields
